Consider 9 molecules from patent US20210388260A1, “USE OF A SUBSTITUTED OR UNSUBSTITUTED POLYCYCLIC AROMATIC HYDROCARBON COMPOUND FOR HIGH-RESOLUTION MICROSCOPY” (Max-Planck-Gesellschaft zur Förderung der Wissenschaften e.V, priority 2018, published 2021).

Values after ≈ are worked out from the molar mass of the structure shown. A value given as a limit tells only on which side of the number the result lay.

Data set [1] is described as follows: Toxicity evaluation (Example 9). As for the experimental part:
(§1) 3,4,5-Tris(hexaethylene glycol) substituted 6,14-dimesityldibenzo[hi,st]ovalene was prepared analogous to example 4 and evaluated concerning its toxicity.

Data set [2] is classed as physicochemical. On the procedure:
as §1

Data set [3] is described as follows: Absorption and emission spectra, molar extinction coefficient, fluorescence quantum yield. In kind it is physicochemical. The conditions noted are these: for width of absorption and emission spectra: spectra of FIGS. 3a-d, 4a-d; for fluorescence quantum yield / maximum absorption wavelength / molar extinction coefficient ε: in toluene (10^−5 mol/L); for molar extinction coefficient ε: at maximum absorption wavelength. The text has this: The maximum absorption wavelength in toluene (10^−5 mol/L) was 611 nm (molar extinction coefficient ε=2.03×10^5 M^−1 cm^−1) with a high fluorescence quantum yield of 0.85.
The maximum absorption wavelength in toluene (10^−5 mol/L) was 609 nm (molar extinction coefficient c=2.83×10^5 M^−1 cm^−1) with a high fluorescence quantum yield of 0.85.
The maximum absorption wavelength in toluene (10^−5 mol/L) was 647 nm (molar extinction coefficient ε=61511 M^−1 cm^−1) with a fluorescence quantum yield of 0.67.
The maximum absorption wavelength in toluene (10^−5 mol/L) was 609 nm (molar extinction coefficient ε=3.85×10^5 M^−1 cm^−1) with a high fluorescence quantum yield of 0.89.

A short description of data set [4]: STED imaging, stability embedded in polystyrene and in air (Example 12). In kind it is physicochemical. The conditions noted are these: high STED beam power, 3D STED imaging of more than one hour. On the procedure: Different measurements were performed with 6,14-dimesityldibenzo[hi,st]ovalene being embedded in a polystyrene matrix and with 6,14-dimesityldibenzo[hi,st]ovalene in air. A Leica SP8 microscopy was used for the microscopy with an excitation laser wavelength of 561 nm and depletion (STED) laser wavelength of 775 nm.
The prepared glass coverslips were taped to a slide and kept in dark at room temperature until use.
A 15-months old sample of 6,14-dimesityldibenzo[hi,st]ovalene embedded in polystyrene as well as a freshly prepared sample of 6,14-dimesityldibenzo[hi,st]ovalene embedded in polystyrene were analyzed by STED.
6,14-dimesityldibenzo[hi,st]ovalene powder was dispersed in toluene at room temperature to a concentration of 10^−5 mol/L and was then further diluted to the needed concentration of e.g. 10^−7 mol/L. A gridded glass coverslip (#1.5) purchased from Ibidi GmbH in Martinsried, Germany which have microscopic/nano-structures was cleaned by oxygen-plasma cleaner (250 W, 5 minutes). 8 μl 10^−7 mol/L solution were put on top of the micro/nano-structure sample. After a few minutes, when all of the toluene was volatilized completely, the prepared sample was put on the microscope for 3D STED imaging.
The STED was performed with the following microscopy settings of the Leica SP8 microscope: […]

Another data set in a line: Solubility in water. In kind it is physicochemical. The conditions noted are these: room temperature. As for the experimental part:
In accordance with the present invention, the solubility and particularly the solubility of the compound having the general formula (1) or the general formula (2) in water at 23° C. is measured as follows: 1 mg sample is weighed into an Erlenmeyer flask and is then mixed homogeneously with 4 ml of water with a spatula at 23° C. The remaining substance on the spatula is stripped off with a magnetic stirrer bar, which is then added to the Erlenmeyer flask. While stirring with a magnetic stirrer, water is added dropwise with a burette until the solution in the Erlenmeyer flask becomes clear at 23° C. After that, the solubility of compound in water is calculated by calculating the ratio of weighed compound divided by the volume of added water and then by recalculating this ratio to 1 l of water.

Data set [5] concerns living cells. In words: Cytotoxicity test in living cells (Example 13, FIG. 8). In kind it is cell-based. The conditions noted are these: concentration of 1 μM. As for the experimental part: (§2) More specifically, the cytotoxicity of DBOV-Mes-OTEG was tested in living cells. […] Moreover, the uptake of DBOV-Mes-OTEG into living cells was investigated by imaging 21 hours with low laser intensity at the spinning disk confocal microscopy (Visitron).

In data set [6] the test system is living cells. In words: Uptake into living cells, spinning disk confocal microscopy. The class given is cell-based. On the procedure:
as §2

Another data set has as its system fixed cells. In words: Blinking-mode imaging of fixed cell samples in PBS without special imaging buffer. In kind it is cell-based. From the text: After the aforementioned live cell imaging, the samples were fixed and imaged in phosphate-buffered saline (PBS) without special imaging buffer.

As for “3,4,5-Tris(hexaethylene glycol) substituted 6,14-dimesityldibenzo[hi,st]ovalene”, the “concentration up to which the compound is non-toxic” value in [1] is not above 5 µM. Besides, the “solubility in DMSO” value in data set [2] is “good solubility”.

Consider “6,14-diphenyldibenzo[hi,st]ovalene [Example 7]”, for which, in [3], the “width of absorption and emission spectra” value was “narrow absorption spectrum as well as a narrow emission spectrum”.

For the molecule `Cc1cc(C)c(-c2c3cccc4c5ccc6ccc7c(-c8c(C)cc(C)cc8C)c8cccc9c%10ccc%11ccc2c2c%11c%10c%10c(c89)c7c6c5c%10c2c34)c(C)c1` [DBOV-Mes, 6,14-dimesityldibenzo[hi,st]ovalene], the “stability and brightness under STED beam” value in [4] was “very stable and still very bright”.

`CCCCCCCCCCCCc1c2cccc3c4ccc5ccc6c(CCCCCCCCCCCC)c7cccc8c9ccc%10ccc1c1c%10c9c9c(c78)c6c5c4c9c1c23` [Example 1, 6,14-didodecyldibenzo[hi,st]ovalene] returned a melting point of more than 400 °C. Further, in [3], the fluorescence quantum yield is reported as 0.85, the maximum absorption wavelength was 611 nm and the “molar extinction coefficient ε” value amounted to 203000 M⁻¹ cm⁻¹.

With `Cc1cccc(C)c1-c1c2cccc3c4ccc5ccc6c(-c7c(C)cccc7C)c7cccc8c9ccc%10ccc1c1c%10c9c9c(c78)c6c5c4c9c1c23` [Example 2, 6,14-bis(dimethylphenyl)dibenzo[hi,st]ovalene], in data set [3], the fluorescence quantum yield is given as 0.85; the maximum absorption wavelength is listed as 609 nm; the “molar extinction coefficient ε” value worked out at 283000 M⁻¹ cm⁻¹; the “width of absorption and emission spectra” value is listed as “narrow absorption spectrum as well as a narrow emission spectrum”.

As to `COCCOCCOCCOCCOc1cc(-c2ccc3cc4cc5c(-c6c(C)cc(C)cc6C)cc6cc7c(-c8cc(OCCOCCOCCOCCOC)c(OCCOCCOCCOCCOC)c(OCCOCCOCCOCCOC)c8)ccc8cc9cc%10c(-c%11c(C)cc(C)cc%11C)cc%11cc2c3c2c%11c%10c3c9c(c87)c6c5c3c42)cc(OCCOCCOCCOCCOC)c1OCCOCCOCCOCCOC` [Example 4, 3,11-bis(3,4,5-tris(2,5,8,11-tetraoxatridecan-13-yloxy)phenyl)-6,14-dimesityldibenzo[hi,st]ovalene], in “Solubility in water”, the solubility in water was 100 µg/mL (≈ 47.7 µM). For the same molecule, the toxicity to cells entry in the data set on living cells [5] is on record as “does not show any significant toxicity”. In addition, the “location of compound in living cells” value with living cells [6] (after 21 hours incubation) is “in the nucleus and nuclear membrane”; with living cells [6] (at the beginning of the incubation) it was “taken into the cytoplasm”. In addition, the “decrease of blinking signals” value in the data set on fixed cells (continuous exposure, high laser intensity 10 kW/cm^2 for 90 min) is “no significant decrease”. In addition, in the data set with fixed cells (low laser intensity of 240 W/cm^2), the “blinking signals at low laser intensity” value was “blinking signals could also be imaged”.

As to `CC(C)[Si](C#Cc1c2cccc3c4ccc5ccc6c(C#C[Si](C(C)C)(C(C)C)C(C)C)c7cccc8c9ccc%10ccc1c1c%10c9c9c(c78)c6c5c4c9c1c23)(C(C)C)C(C)C` [Example 5, 6,14-di(triisopropylsilylethynyl) dibenzo[hi,st]ovalene], in data set [3], the fluorescence quantum yield came to 0.67; the maximum absorption wavelength is recorded as 647 nm; the “molar extinction coefficient ε” value was 61511 M⁻¹ cm⁻¹; the “width of absorption and emission spectra” value is “narrow absorption spectrum as well as a narrow emission spectrum”.

As to `CCCCCCCCCCCCOc1cc(-c2c3cccc4c5ccc6ccc7c(-c8cc(OCCCCCCCCCCCC)c(OCCCCCCCCCCCC)c(OCCCCCCCCCCCC)c8)c8cccc9c%10ccc%11ccc2c2c%11c%10c%10c(c89)c7c6c5c%10c2c34)cc(OCCCCCCCCCCCC)c1OCCCCCCCCCCCC` [Example 6, 6,14-bis[3,4,5-tris(dodecoxyl)-phenyl]dibenzo[hi,st]ovalene], in data set [3], the fluorescence quantum yield is on record as 0.89, the maximum absorption wavelength is 609 nm and the “molar extinction coefficient ε” value came out at 385000 M⁻¹ cm⁻¹.

Consider `CCCCCCn1c(=O)c2c3ccc4c(-c5c(C)cc(C)cc5C)c5ccc6cc7c8c(=O)n(CCCCCC)c(=O)c8c8ccc9c(-c%10c(C)cc(C)cc%10C)c%10ccc%11cc(c2c1=O)c1c3c4c2c5c6c3c7c8c9c4c%10c%11c1c2c43` [Example 8, N-hexyl fumaric acid imide group substituted 6,14-dimesityldibenzo[hi,st]ovalene], for which the “width of absorption and emission spectra” value in data set [3] is “narrow absorption spectrum as well as a narrow emission spectrum”.
